Laboratory results published in US20100267561A1, “HERBICIDAL PYRIDAZINONE DERIVATIVES” (priority 2007, published 2010).

Experiments:
Assay in all cases: Test E pre-/postemergence plant response
Assay type in all cases: in vivo
[1] = test system: barnyardgrass (Echinochloa crus-galli)
Outline: (§1)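 Plants scored visually versus controls on a 0–100 scale (100 = complete control) 14 to 21 days after treatment in the greenhouse. Test chemicals in a surfactant-containing non-phytotoxic solvent were applied to soil preemergence or to 1- to 4-leaf plants, 2–18 cm tall.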

[2] = test system: common chickweed (Stellaria media); conditions: Postemergence, scale 0 to 100
Outline: as §1

[3] = test system: Virginia (V.) dayflower (Commelina virginica); conditions: scale 0 to 100
Outline: as §1

[4] = test system: naked crabgrass (Digitaria nuda); conditions: scale 0 to 100
Outline: as §1

[5] = test system: Russian thistle (Salsola kali); conditions: Preemergence, 4 g ai/ha; scale 0 to 100
Outline: as §1

[6] = test system: broadleaf signalgrass (Brachiaria platyphylla); conditions: scale 0 to 100
Outline: as §1

[7] = test system: common sowthistle (Sonchus oleraceous); conditions: scale 0 to 100
Outline: as §1

kochia (Kochia scoparia) = conditions: scale 0 to 100
Outline: as §1

[8] = test system: dallisgrass (Paspalum dilatatum); conditions: scale 0 to 100
Outline: as §1

[9] = test system: prickly sida (Sida spinosa); conditions: scale 0 to 100
Outline: as §1

[10] = test system: large crabgrass (Digitaria sanguinalis); conditions: scale 0 to 100
Outline: as §1

CCc1cc(-c2ccc(C(F)(F)F)cc2)nn1-c1c(OC(=O)OC(C)C)cnn(C)c1=O [Compound 12]
Plant response rating, Barnyardgrass ([1]; 4 g ai/ha, Postemergence, scale 0 to 100): 90 | Plant response rating, Barnyardgrass ([1]; 8 g ai/ha, Preemergence, scale 0 to 100): 70 | Plant response rating, Barnyardgrass ([1]; 31 g ai/ha, Preemergence, scale 0 to 100): 95 | Plant response rating, Barnyardgrass ([1]; Postemergence, 8 g ai/ha, scale 0 to 100): 100 | Plant response rating, Barnyardgrass ([1]; Postemergence, 31 g ai/ha, scale 0 to 100): 100 | Plant response rating, Barnyardgrass ([1]; Preemergence, 4 g ai/ha, scale 0 to 100, 0 no effect, 100 complete control): 20 | Plant response rating, Chickweed ([2]; 4 g ai/ha): 0 | Plant response rating, Chickweed ([2]; 8 g ai/ha): 0 | Plant response rating, Chickweed ([2]; 31 g ai/ha): 0 | Plant response rating, Dayflower, V. ([3]; 4 g ai/ha, Postemergence): 0 | Plant response rating, Dayflower, V. ([3]; 8 g ai/ha, Preemergence): 0 | Plant response rating, Dayflower, V. ([3]; 31 g ai/ha, Preemergence): 0 | Plant response rating, Dayflower, V. ([3]; Postemergence, 8 g ai/ha): 0 | Plant response rating, Dayflower, V. ([3]; Postemergence, 31 g ai/ha): 0 | Plant response rating, Dayflower, V. ([3]; Preemergence, 4 g ai/ha): 0 | Plant response rating, Crabgrass, Naked ([4]; 4 g ai/ha, Postemergence): 50 | Plant response rating, Crabgrass, Naked ([4]; 8 g ai/ha, Preemergence): 95 | Plant response rating, Crabgrass, Naked ([4]; 31 g ai/ha, Preemergence): 100 | Plant response rating, Crabgrass, Naked ([4]; Postemergence, 8 g ai/ha): 90 | Plant response rating, Crabgrass, Naked ([4]; Postemergence, 31 g ai/ha): 95 | Plant response rating, Crabgrass, Naked ([4]; Preemergence, 4 g ai/ha): 15 | Plant response rating, Thistle, Russian [5]: 0 | Plant response rating, Signalgrass ([6]; 4 g ai/ha, Postemergence): 65 | Plant response rating, Signalgrass ([6]; 31 g ai/ha, Preemergence): 95 | Plant response rating, Signalgrass ([6]; Postemergence, 8 g ai/ha): 80 | Plant response rating, Signalgrass ([6]; Postemergence, 31 g ai/ha): 100 | Plant response rating, Signalgrass ([6]; Preemergence, 4 g ai/ha): 0 | Plant response rating, Sowthistle ([7]; 4 g ai/ha, Postemergence): 0 | Plant response rating, Sowthistle ([7]; Postemergence, 8 g ai/ha): 0 | Plant response rating, Sowthistle ([7]; Postemergence, 31 g ai/ha): 0 | Plant response rating, Sowthistle ([7]; Preemergence, 4 g ai/ha): 0 | Plant response rating, Kochia (kochia (Kochia scoparia); 4 g ai/ha, Postemergence): 0 | Plant response rating, Kochia (kochia (Kochia scoparia); 31 g ai/ha, Preemergence): 0 | Plant response rating, Kochia (kochia (Kochia scoparia); Postemergence, 8 g ai/ha): 0 | Plant response rating, Kochia (kochia (Kochia scoparia); Postemergence, 31 g ai/ha): 0 | Plant response rating, Kochia (kochia (Kochia scoparia); Preemergence, 4 g ai/ha): 0 | Plant response rating, Dallisgrass ([8]; 4 g ai/ha, Postemergence): 65 | Plant response rating, Dallisgrass ([8]; 8 g ai/ha, Preemergence): 40 | Plant response rating, Dallisgrass ([8]; 31 g ai/ha, Preemergence): 100 | Plant response rating, Dallisgrass ([8]; Postemergence, 8 g ai/ha): 75 | Plant response rating, Dallisgrass ([8]; Postemergence, 31 g ai/ha): 85 | Plant response rating, Dallisgrass ([8]; Preemergence, 4 g ai/ha): 0 | Plant response rating, Prickly Sida ([9]; 4 g ai/ha, Postemergence): 0 | Plant response rating, Prickly Sida ([9]; 31 g ai/ha, Preemergence): 0 | Plant response rating, Prickly Sida ([9]; Postemergence, 8 g ai/ha): 0 | Plant response rating, Prickly Sida ([9]; Postemergence, 31 g ai/ha): 0 | Plant response rating, Prickly Sida ([9]; Preemergence, 4 g ai/ha): 0 | Plant response rating, Crabgrass, Large ([10]; 4 g ai/ha, Postemergence): 0 | Plant response rating, Crabgrass, Large ([10]; 8 g ai/ha, Preemergence): 35 | Plant response rating, Crabgrass, Large ([10]; 31 g ai/ha, Preemergence): 98 | Plant response rating, Crabgrass, Large ([10]; Postemergence, 8 g ai/ha): 65 | Plant response rating, Crabgrass, Large ([10]; Postemergence, 31 g ai/ha): 95 | Plant response rating, Crabgrass, Large ([10]; Preemergence, 4 g ai/ha): 0
